Assay [1] deals with B16. Put plainly: Induction of melanogenesis in mouse B16 cells assessed as increase in intracellular melanin content at 50 uM incubated for 49 hrs by NaOH lysis based microplate reader assay. The assay is classed as functional.
For assay [2], the system named is B16. Put plainly: Induction of melanogenesis in mouse B16 cells assessed as upregulation of MITF mRNA expression at 50 uM by RT-PCR analysis. The assay is classed as functional, cell-based.
The test system of assay [3] is B16. Put plainly: Induction of melanogenesis in mouse B16 cells assessed as upregulation of TRP-1 protein expression at 50 uM incubated for 48 hrs by Western blot analysis. The format is functional, cell-based. (In general: A western blot detects proteins with antibodies after separation by electrophoresis.)
The test system of assay [4] is B16. The experiment in a line: Induction of melanogenesis in mouse B16 cells assessed as upregulation of TYR mRNA expression at 50 uM by RT-PCR analysis. The assay is classed as functional, cell-based.
In assay [5] the test system is B16. The experiment in a line: Induction of melanogenesis in mouse B16 cells assessed as upregulation of TYR protein expression at 50 uM incubated for 48 hrs by Western blot analysis. The format is functional, cell-based.
In assay [6] the test system is B16. The experiment in a line: Induction of melanogenesis in mouse B16 cells assessed as upregulation of MITF protein expression at 50 uM incubated for 48 hrs by Western blot analysis. The format is functional, cell-based.
For assay [7], the system named is HaCaT. Put plainly: Inhibition of JAK/STAT signaling pathway in human HaCaT cells assessed as downregulation of IFN-gamma induced JAK1 protein expression at 1 to 50 uM incubated for 48 hrs by Western blot analysis. The assay is classed as cell-based. The note with it: dose 1-50 µM.
Assay [8] has as its system HaCaT. The experiment in a line: Inhibition of JAK/STAT signaling pathway in human HaCaT cells assessed as downregulation of IFN-gamma induced CXCL10 protein level at 1 to 50 uM incubated for 24 hrs by ELISA. The assay is classed as cell-based. The note with it: dose 1-50 µM, DDE = dose-dependent effect. A general note: An ELISA detects its analyte on a solid surface through an enzyme-linked reagent.

Assay [9] relates to B16. Put plainly: Induction of melanogenesis in mouse B16 cells assessed as increase in intracellular tyrosinase activity at 50 uM incubated for 48 hrs by L-DOPA oxidation method. The format is functional, cell-based.
For assay [10], the system named is HaCaT. The experiment in a line: Inhibition of JAK/STAT signaling pathway in human HaCaT cells assessed as downregulation of IFN-gamma induced CXCL10 mRNA expression at 1 to 50 uM by RT-PCR analysis. The assay is classed as cell-based. The note with it: dose 1-50 µM, DDE = dose-dependent effect.
Assay [11] has as its system B16. Put plainly: Induction of melanogenesis in mouse B16 cells assessed as upregulation of TRP-2 mRNA expression at 50 uM by RT-PCR analysis. The assay is classed as functional, cell-based.
For assay [12], the system named is B16. The experiment in a line: Induction of melanogenesis in mouse B16 cells assessed as upregulation of TRP-1 mRNA expression at 50 uM by RT-PCR analysis. The assay is classed as functional, cell-based.
For assay [13], the system named is B16. Put plainly: Induction of melanogenesis in mouse B16 cells assessed as increase in intracellular melanin content at 1 to 50 uM incubated for 49 hrs by NaOH lysis based microplate reader assay. The assay is classed as functional, cell-based. Particulars: dose 1-50 µM, DDE = dose-dependent effect.
Assay [14] relates to HaCaT. The experiment in a line: Inhibition of JAK/STAT signaling pathway in human HaCaT cells assessed as downregulation of IFN-gamma induced JAK2 protein expression at 50 uM incubated for 48 hrs by Western blot analysis. The assay is classed as cell-based.
Assay [15] relates to B16. Put plainly: Induction of melanogenesis in mouse B16 cells assessed as upregulation of TRP-2 protein expression at 50 uM incubated for 48 hrs by Western blot analysis. The format is functional, cell-based.
In assay [16] the test system is HaCaT. Put plainly: Inhibition of JAK/STAT signaling pathway in human HaCaT cells assessed as downregulation of IFN-gamma induced p-STAT protein expression at 10 to 50 uM incubated for 48 hrs by Western blot analysis. The assay is classed as cell-based. Particulars: dose 10-50 µM.

The source made the active and inactive calls. No cut-off for these calls is given here.

Turning to `C=C1CC[C@@H](O)[C@]2(C)C[C@H](OC(C)=O)[C@H]3[C@H](C)C(=O)O[C@@H]3[C@@]12O`, in the assay with B16 [1], the outcome was Active.

As for `C=C1CC[C@H](O)[C@]2(C)CC[C@H]3[C@@H](C)C(=O)O[C@@H]3[C@@]12O`, in the assay on B16 [1], the outcome was Active.

In the case of `C=C1CC[C@@H](O)[C@]2(C)CC[C@@H]([C@@H](C)C(=O)OC)[C@H](O)[C@]12O`, the outcome in the assay on B16 [2], in the assay with B16 [3], with B16 [4], in the assay on B16 [5], in the assay with B16 [6] and in the assay with B16 [9] was Active. Also, the result in the assay with B16 [11], in the assay with B16 [12] and with B16 [15] was Active. Also, the inhibition entry in the assay on HaCaT [7], with HaCaT [14] and in the assay with HaCaT [16] was “Active” throughout. Also, the inhibition result in the assay with HaCaT [8] and with HaCaT [10] was “Dde” each time. Further, the Activity in the assay with B16 [1] was 153%; in the assay with B16 [13] it was “Dde”.

Turning to `C=C1CC[C@@H](O)[C@]2(C)CC[C@@H]([C@@H](C)C(=O)OC)[C@H](O)[C@@]12O`, the result with B16 [1] was Active.

Take `COc1c2occc2cc2ccc(=O)oc12` [METHOXSALEN]: the Activity in the assay with B16 [1] is 138%.

These data come from ChEMBL document CHEMBL5126660, “Sesquiterpenoids from Seriphidium transiliense and Their Melanogenic Activity” (2022).
